Test results from ChEMBL document CHEMBL1201862, “PubChem BioAssay data set” (2004).
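Grown in 96-well plates, cells were treated for 48 hours with each compound at five concentrations. Insufficient inhibition: endpoint recorded as highest concentration tested. GI50 = concentration required for 50% inhibition of growth.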 Calls of active or inactive are those of the source. Rule as the data show it: active = GI50 up to about 1.1 µM and inactive = higher.

Tests used:
Assay in all cases: NCI-60 cell line screen, 48 h
SN12C = system: SN12C
UACC-257 = system: UACC-257
Hs-578T = system: Hs-578T
UACC-62 = system: UACC-62
NCI-H226 = system: NCI-H226
CAKI-1 = system: CAKI-1
SNB-75 = system: SNB-75
A549 = system: A549
COLO 205 = system: COLO 205
SW-620 = system: SW-620
BT-549 = system: BT-549
U-251 = system: U-251
RXF 393 = system: RXF 393
T47D = system: T47D
786-0 = system: 786-0
SK-MEL-2 = system: SK-MEL-2
IGROV-1 = system: IGROV-1
M14 = system: M14
RPMI-8226 = system: RPMI-8226

SMILES | GI50 (SN12C) | GI50 (UACC-257) | GI50 (Hs-578T) | GI50 (UACC-62) | GI50 (NCI-H226) | GI50 (CAKI-1) | GI50 (SNB-75) | GI50 (A549) | GI50 (COLO 205) | GI50 (SW-620) | GI50 (BT-549) | GI50 (U-251) | GI50 (RXF 393) | GI50 (T47D) | GI50 (786-0) | GI50 (SK-MEL-2) | GI50 (IGROV-1) | GI50 (M14) | GI50 (RPMI-8226)
Nc1nc(SCc2ccccc2Cl)cc(C(=O)O)n1 | 97.1 µM (inactive) | > 100 µM (inactive) | 49.1 µM (inactive) | > 100 µM (inactive) | 49.1 µM (inactive) | > 100 µM (inactive) | > 100 µM (inactive) | > 100 µM (inactive) | 39.4 µM (inactive) | 70.6 µM (inactive) | 97.9 µM (inactive) | 54.8 µM (inactive) | > 100 µM (inactive) | > 100 µM (inactive) | 79.1 µM (inactive) | 58.9 µM (inactive) | > 100 µM (inactive) | > 100 µM (inactive) | 54.1 µM (inactive)
CCN1C/C(=C\c2cc(OC)c(OC)c(OC)c2)C2=NN(c3ccccc3)C(c3cc(OC)c(OC)c(OC)c3)C2C1 (centres undefined) | 2.47 µM (inactive) | 3.35 µM (inactive) | 0.34 µM (active) | 20.1 µM (inactive) | 4.68 µM (inactive) | 0.91 µM (active) | 0.268 µM (active) | 1.5 µM (inactive) | 2.36 µM (inactive) | 2.56 µM (inactive) | 6.75 µM (inactive) | 0.652 µM (active) | 0.75 µM (active) | 3.53 µM (inactive) | 0.398 µM (active) | 6.84 µM (inactive) | 6.43 µM (inactive) | 1.7 µM (inactive) | 1.13 µM (inactive)
O=c1[nH]nc(-c2ccccc2)n1-n1cccc1 | > 100 µM (inactive) | > 100 µM (inactive) | > 100 µM (inactive) | > 100 µM (inactive) | > 100 µM (inactive) | > 100 µM (inactive) | > 100 µM (inactive) | > 100 µM (inactive) | > 100 µM (inactive) | > 100 µM (inactive) | > 100 µM (inactive) | > 100 µM (inactive) | > 100 µM (inactive) | > 100 µM (inactive) | > 100 µM (inactive) | > 100 µM (inactive) | > 100 µM (inactive) | > 100 µM (inactive) | > 100 µM (inactive)
O=C(CC(Cc1ccccc1)c1ccc(Oc2ccccc2)cc1)Nc1cccc(Cl)c1 (centres undefined) | 4.22 µM (inactive) | 11 µM (inactive) | 7.85 µM (inactive) | 3.04 µM (inactive) | 7.48 µM (inactive) | 3.66 µM (inactive) | 6.73 µM (inactive) | 3.9 µM (inactive) | 6 µM (inactive) | 4.42 µM (inactive) | 7.67 µM (inactive) | 3.95 µM (inactive) | 5.41 µM (inactive) | 2.92 µM (inactive) | 5.43 µM (inactive) | 3.56 µM (inactive) | 2.9 µM (inactive) | 4.88 µM (inactive) | 3.72 µM (inactive)
CCOC(=O)/C(C#N)=C/N(CC)/N=C/c1ccccc1 | > 100 µM (inactive) | > 100 µM (inactive) | 54.7 µM (inactive) | > 100 µM (inactive) | > 100 µM (inactive) | > 100 µM (inactive) | > 100 µM (inactive) | > 100 µM (inactive) | > 100 µM (inactive) | > 100 µM (inactive) | > 100 µM (inactive) | > 100 µM (inactive) | 97.3 µM (inactive) | > 100 µM (inactive) | 86.9 µM (inactive) | > 100 µM (inactive) | > 100 µM (inactive) | > 100 µM (inactive) | > 100 µM (inactive)
Fc1ccc2c(c1)nc1n2C(c2c(F)cccc2F)SC1 (centres undefined) | 70.8 µM (inactive) | 52.7 µM (inactive) | 47 µM (inactive) | 45.5 µM (inactive) | > 100 µM (inactive) | 32.5 µM (inactive) | 28.2 µM (inactive) | 48.5 µM (inactive) | 80.2 µM (inactive) | 69.3 µM (inactive) | 42.5 µM (inactive) | 57 µM (inactive) | 62.2 µM (inactive) | 31 µM (inactive) | 66.7 µM (inactive) | > 100 µM (inactive) | 64.9 µM (inactive) | 49.8 µM (inactive) | 78.9 µM (inactive)
